# Experimental data from PubChem BioAssay AID1963974 (Molecular Pharmacology Branch, DTP, NCI, 2024).
# Where “and” joins values, the source holds several entries; their conditions need not be identical. Equal values may be shown once.
# Test system: 648629-189-R-J1-PDC spheroids with HUVEC/MSC, viability
# Experiment: Anticancer human tumor 648629-189-R-J1-PDC patient-derived bladder carcinoma cell line growth inhibition [PI3K]
# Settings: for viability, T/C: stronger effect = lower value
# Source text: Combinatorial screen of targeted agents with the PI3K inhibitors inavolisib, alpelisib, duvelisib, and copanlisib in multi-cell type tumor spheroids
# A high-throughput screen of multi-cell type tumor spheroids was designed to identify active combinations of targeted small molecules and PI3K pathway inhibitors. Complex spheroids include a stromal component modeled by human endothelial cells (HUVEC) and fibroblasts modeled by human mesenchymal stem cells (MSCs). The concentration ranges selected for each drug and investigational agent were based upon clinically achievable concentrations if the clinical Cmax of the agent was known.
# Compounds. The drugs and investigational agents: inavolisib (NSC800729), alpelisib (NSC765974), duvelisib (NSC772469), copanlisib (NSC816437), ipatasertib (NSC767898), afuresertib (NSC778305), talazoparib (NSC767125), sapanisertib (NSC764658), selumetinib (NSC741078), tovorafenib (DAY101, NSC766906), vemurafenib (NSC761431), ravoxertinib (NSC781343), sotorasib (NSC818433), MRTX1133 (NSC 836407), abemaciclib (NSC 768073), palbociclib (NSC758247), venetoclax (NSC 766270), SY5609 (NSC837396), enzalutamide (NSC755605), and darolutamide (NSC825331), were obtained from the National Cancer Institute (NCI) Developmental Therapeutics Program Chemical Repository. The FDA-approved anticancer drug set is available from the NCI Developmental Therapeutics Program. […] The stock solutions were prepared in dimethyl sulfoxide (DMSO, Sigma-Aldrich, St. Louis, MO, cat. D2650) at 800-fold the tested concentration and stored at -70 degrees C prior to their use. All drugs and investigational agents were tested over a range starting from a high concentration at or near the clinical Cmax and decreasing in half-log increments. If the clinical Cmax for an agent had not been determined, the highest concentration tested was 10 microM.
# Cell Culture. All cells were maintained in an incubator at 37 degrees C and 5% CO2 with 95% humidity. The PDC lines were cultured according to standard operating procedures established by the NCI PDMR (https://pdmr.cancer.gov/sops/default.htm). All PDCs were thawed and cultured in Matrigel-coated flasks prepared with a working solution of 1X Ham's F-12 nutrient mix, without supplementation (Invitrogen, Waltham, MA, cat. 11765054), 100 U/mL penicillin-streptomycin (Invitrogen, cat. 15140122), and 2.5% Matrigel (Corning Inc., Corning, NY, cat. 354248) for the first three passages. The 354836-022-R-J1-PDC, 475296-252-R-J1-PDC, and 997726-040-R-J2-PDC lines were cultured in 6A media, which includes advanced DMEM/F-12 (Thermo Fisher Scientific, cat. 12634028), 10 mM HEPES (Thermo Fisher Scientific, cat. 15630080), 1X GlutaMAX supplement (Thermo Fisher Scientific, cat. 35050061), 0.1 mg/mL primocin (InvivoGen, San Diego, CA, cat. ant-pm-2), 10% defined fetal bovine serum, heat inactivated (HyClone Laboratories Inc., Logan, UT, cat. SH30070.03HI), 50% L-WRN conditioned media (ATCC, cat. CRL-3276), 1.25 mM N-Acetyl-L-cysteine (Sigma-Aldrich, cat. A9165), 10 mM nicotinamide (Sigma-Aldrich, cat. N0636), 1X B-27 supplement (Thermo Fisher Scientific, cat. 17504044), 1X N-2 supplement (Thermo Fisher Scientific, cat. 17502048), and 10 microM Y-27632 dihydrochloride (Tocris Bioscience, Bristol, United Kingdom, cat. 1254). The 624824-186-R-J2-PDC line was cultured in 6C/Colon 1B media, which includes all 6A media components plus 50 ng/mL human EGF recombinant protein (Thermo Fisher Scientific, cat. PHG0311). […]
# [1] = compound alone, run of 04/24/2023
# [2] = compound alone, run of 04/25/2023
# 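Note: spheroids exposed to agents for seven days before reading.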
# 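Throughout, for viability, T/C: percent of vehicle control luminescence where 100% = DMSO treated spheroids.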
Structure (SMILES),"viability, T/C (compound 0.000316 µM)","viability, T/C (compound 0.001 µM)","viability, T/C (compound 0.00316 µM)","viability, T/C (compound 0.01 µM)","viability, T/C (compound 0.0316 µM)","viability, T/C (compound 0.1 µM)",IC50 (curve of compound),"viability, T/C (compound 0.316 µM)","viability, T/C (compound 1 µM)","viability, T/C (compound 3.16 µM)","viability, T/C (compound 10 µM)",IC50 [1],IC50 [2],"viability, T/C (compound 0.00949 µM)","viability, T/C (compound 0.03 µM)","viability, T/C (compound 0.0949 µM)","viability, T/C (compound 0.3 µM)","viability, T/C (compound 0.949 µM)","viability, T/C (compound 3 µM)"
CC(=O)c1c(C)c2cnc(Nc3ccc(N4CCNCC4)cn3)nc2n(C2CCCC2)c1=O,101% [middle of 4 runs],102% [middle of 4 runs],115% [middle of 4 runs],97.2% [middle of 4 runs],100% [middle of 4 runs],111% [middle of 4 runs],> 0.1 µM,–,–,–,–,–,–,–,–,–,–,–,–
CC(C)NCC(C(=O)N1CCN(c2ncnc3c2C(C)CC3O)CC1)c1ccc(Cl)cc1 (configuration not stated),–,–,–,–,95.2% and 106% (2×) and 98.2%,–,1.06 µM [middle of 4 runs],86% [middle of 4 runs],48% [middle of 4 runs],29.7% [middle of 4 runs],16.6% and 15.3% (2×) and 14.4%,–,–,–,–,–,–,–,–
CC(C)n1nc(-c2ccc3oc(N)nc3c2)c2c(N)ncnc21,111% [middle of 4 runs],102% [middle of 4 runs],97.9% [middle of 4 runs],89.7% [middle of 4 runs],78.6% [middle of 4 runs],34% [middle of 4 runs],63.4 nM [middle of 4 runs],–,–,–,–,–,–,–,–,–,–,–,–
CC(Cn1ccc(-c2ccc(C#N)c(Cl)c2)n1)NC(=O)c1cc(C(C)O)[nH]n1 (configuration not stated),–,–,–,–,108% [middle of 4 runs],94.8% [middle of 4 runs],> 10 µM,105% [middle of 4 runs],104% [middle of 4 runs],88.8% [middle of 4 runs],81.1% [middle of 4 runs],–,–,–,–,–,–,–,–
CC(Nc1ccc2c(c1)OCCn1cc(N3C(=O)OCC3C(F)F)nc1-2)C(N)=O (configuration not stated),–,–,104% [middle of 8 runs],99.7% [middle of 8 runs],106% [middle of 8 runs],95.2% [middle of 8 runs],–,81.1% [middle of 8 runs],73.8% [middle of 8 runs],–,–,> 1 µM,–,–,–,–,–,–,–
CC(Nc1ncnc2nc[nH]c12)c1cc2cccc(Cl)c2c(=O)n1-c1ccccc1 (configuration not stated),–,–,–,–,104% [middle of 8 runs],104% [middle of 8 runs],–,103% [middle of 8 runs],97.5% [middle of 8 runs],97.1% [middle of 8 runs],90.1% [middle of 8 runs],–,> 10 µM,–,–,–,–,–,–
CC1(C)CCC(CN2CCN(c3ccc(C(=O)NS(=O)(=O)c4ccc(NCC5CCOCC5)c([N+](=O)[O-])c4)c(Oc4cnc5[nH]ccc5c4)c3)CC2)=C(c2ccc(Cl)cc2)C1,–,–,–,–,102% (2×) and 94.5% and 111%,101% (2×) and 96.3% and 98.1%,> 10 µM and 4.88 µM and 5.19 µM,110% [middle of 4 runs],98.5% [middle of 4 runs],89% [middle of 4 runs],–,–,–,–,–,–,–,–,–
CC1(C)CCC(Nc2ncc(C(F)(F)F)c(-c3c[nH]c4c(P(C)(C)=O)c(C#N)ccc34)n2)CN1 (configuration not stated),–,–,–,–,30.3% [middle of 4 runs],27.1% [middle of 4 runs],< 0.0316 µM,32.2% [middle of 4 runs],36.1% [middle of 4 runs],39.7% (2×) and 40.8% and 38.2%,5.52% [middle of 4 runs],–,–,–,–,–,–,–,–
CCCS(=O)(=O)Nc1ccc(F)c(C(=O)c2c[nH]c3ncc(-c4ccc(Cl)cc4)cc23)c1F,–,–,–,–,103% (2×) and 105% and 102%,108% [middle of 4 runs],5.33 µM [middle of 4 runs],112% [middle of 4 runs],110% [middle of 4 runs],91.3% [middle of 4 runs],0.48% [middle of 4 runs],–,–,–,–,–,–,–,–
CCN1CCN(Cc2ccc(Nc3ncc(F)c(-c4cc(F)c5nc(C)n(C(C)C)c5c4)n3)nc2)CC1,–,–,107% [middle of 4 runs],96.7% [middle of 4 runs],103% [middle of 4 runs],103% [middle of 4 runs],> 1 µM,109% [middle of 4 runs],117% [middle of 4 runs],–,–,–,–,–,–,–,–,–,–
CNC(=O)c1ccc(N2C(=S)N(c3ccc(C#N)c(C(F)(F)F)c3)C(=O)C2(C)C)cc1F,–,–,–,–,107% (2×) and 95.9% and 101%,98.2% [middle of 4 runs],> 10 µM,107% [middle of 4 runs],105% [middle of 4 runs],92.6% and 104% (2×) and 108%,91% [middle of 4 runs],–,–,–,–,–,–,–,–
COc1c(OCCCN2CCOCC2)ccc2c3n(c(=NC(=O)c4cnc(N)nc4)nc12)CCN3,–,–,108% [middle of 8 runs],103% [middle of 8 runs],97.5% [middle of 8 runs],64.5% [middle of 8 runs],–,18.6% [middle of 8 runs],3.42% [middle of 8 runs],–,–,–,144 nM [middle of 7 runs],–,–,–,–,–,–
C[C@@H](NC(=O)c1ncnc(N)c1Cl)c1ncc(C(=O)Nc2cc(C(F)(F)F)c(Cl)cn2)s1,–,–,–,–,105% [middle of 4 runs],98.5% [middle of 4 runs],> 10 µM,103% [middle of 4 runs],106% and 107% (2×) and 91.5%,114% [middle of 4 runs],117% [middle of 4 runs],–,–,–,–,–,–,–,–
Cc1nc(NC(=O)N2CCCC2C(N)=O)sc1-c1ccnc(C(C)(C)C(F)(F)F)c1 (configuration not stated),–,–,–,–,103% [middle of 8 runs],101% [middle of 8 runs],–,95.9% [middle of 8 runs],77.4% [middle of 8 runs],60% [middle of 8 runs],37.3% [middle of 8 runs],5.36 µM [middle of 8 runs],–,–,–,–,–,–,–
Cn1cnc2c(F)c(Nc3ccc(Br)cc3Cl)c(C(=O)NOCCO)cc21,–,–,–,–,–,–,> 3 µM,–,–,–,–,–,–,108% and 98.8% (2×) and 95.3%,96.8% [middle of 4 runs],99.2% [middle of 4 runs],94.5% [middle of 4 runs],103% [middle of 4 runs],84.9% [middle of 4 runs]
Cn1nccc1Nc1nccc(-c2ccn(C(CO)c3ccc(Cl)c(F)c3)c(=O)c2)n1 (configuration not stated),–,–,–,–,107% [middle of 4 runs],104% [middle of 4 runs],> 10 µM,112% [middle of 4 runs],110% [middle of 4 runs],110% [middle of 4 runs],81.2% [middle of 4 runs],–,–,–,–,–,–,–,–
Cn1ncnc1[C@H]1c2n[nH]c(=O)c3cc(F)cc(c23)N[C@@H]1c1ccc(F)cc1,105% [middle of 4 runs],105% [middle of 4 runs],101% [middle of 4 runs],92.9% [middle of 4 runs],73.1% [middle of 4 runs],63.2% [middle of 4 runs],> 0.1 µM,–,–,–,–,–,–,–,–,–,–,–,–
